Key:
[1] = system: pathogenic bacteria causing bacterial angular leaf spot in cucumbers; assay: In vitro bactericidal activity, bacterial angular leaf spot in cucumbers; format: cell-based, pseudomonas; conditions: read-out: inhibitory rate; for inhibition at 1 ppm: dosage 1 ppm; for inhibition at 5 ppm: dosage 5 ppm
[2] = system: pathogenic bacteria causing bacterial wilt in tobacco; assay: whole plant or invertebrate; format: cell-based, ralstonia; conditions: read-out: inhibitory rate
[3] = system: pathogenic bacteria causing black shank in potatoes; assay: In vitro bactericidal activity, black shank in potatoes; format: cell-based; conditions: read-out: inhibitory rate; for inhibition at 1 ppm: dosage 1 ppm; for inhibition at 5 ppm: dosage 5 ppm
[4] = system: pathogenic bacteria causing stem rot in sweet potatoes; assay: In vitro bactericidal activity, stem rot in sweet potatoes; format: cell-based, dikia; conditions: read-out: inhibitory rate; for inhibition at 1 ppm: dosage 1 ppm; for inhibition at 5 ppm: dosage 5 ppm
[5] = system: pathogenic bacteria causing bacterial blight in rice; assay: whole plant or invertebrate; format: cell-based, xanthomonas; conditions: read-out: inhibitory rate
[6] = system: pathogenic bacteria causing fruit blotch in watermelons; assay: In vitro bactericidal activity, fruit blotch in watermelons; format: cell-based, acidovorax; conditions: read-out: inhibitory rate; for inhibition at 1 ppm: dosage 1 ppm; for inhibition at 5 ppm: dosage 5 ppm
[7] = system: pathogenic bacteria causing black rot in Chinese cabbages; assay: In vitro bactericidal activity, black rot in Chinese cabbages; format: cell-based, xanthomonas; conditions: Xanthomonas, read-out: inhibitory rate; for inhibition at 1 ppm: dosage 1 ppm; for inhibition at 5 ppm: dosage 5 ppm
[8] = system: pathogenic bacteria causing bacterial wilt in cassava; assay: organism not typed; format: cell-based; conditions: read-out: inhibitory rate
[9] = system: pathogenic bacteria causing fire blight in pears; assay: In vitro bactericidal activity, fire blight in pears; format: cell-based, erwinia; conditions: Erwinia, read-out: inhibitory rate; for inhibition at 1 ppm: dosage 1 ppm; for inhibition at 5 ppm: dosage 5 ppm
[10] = system: black shank in potatoes; assay: Living crops in vivo protective activity, potatoes (root irrigation); conditions: Solanum tuberosum, read-out: efficacy against black shank in potatoes; for pest or weed control at 5 ppm: dosage 5 ppm; for pest or weed control at 10 ppm: dosage 10 ppm
Method: Root irrigation was carried out on the potatoes for tests according to the designed concentration of the agents. The dosage for each plant was 200 mL and was kept consistent (also for the control). The black shank bacteria were inoculated on the second day after the application. The results were investigated according to the disease condition.

[11] = system: indoor potted cucumber seedlings; assay: Effect of improving growth and development of crops; format: in vivo; set-up: Rate of growth rate increase (%): concentration or dose not given beside the values; conditions: versus blank control; for Rate of chlorophyll content increase (%) / Rate of leaf area increase (%): 14 days after application; for Rate of growth rate increase (%): plant height 14 days after application; for Rate of leaf area increase (%): second leaf
Method: Taking indoor potted cucumber seedlings as an example, the influence of the compound disclosed herein on growth rate of plant height, chlorophyll content, leaf area, etc. of crops was mainly evaluated.
The plant heights of plants before application and 14 days after the application were measured.
The growth rates were calculated according to formula (1)
The rates of the growth rate increase (%) were calculated according to formula (2)
The longitudinal and transverse diameters (i.e., leaf length and leaf width, respectively, wherein the leaf length is the distance from the base to the tip of a leaf, and leaf width is the measured value of the upper shoulder width of the leaf) of the second leaf of plants before application and 14 days after the application were measured.
The leaf areas were calculated according to formula (3)
The leaf area increases were calculated according to formula (4)
The rates of the leaf area increases were calculated according to formula (5)
The chlorophyll contents of leaves were measured by using a chlorophyll measuring instrument (model: SPAD-520 Plus).
The chlorophyll content increases were calculated according to formula (6)
The rates of the chlorophyll content increases were calculated according to formula (7)

[12] = system: cucumber seedlings; assay: Safety for plant growth after application; format: in vivo; conditions: dosage 200 ppm
Method in brief: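 Using pot-grown cucumber seedlings indoors, we recorded plant height growth rate together with chlorophyll content and leaf area following compound application.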

[13] = system: bacterial wilt in tobacco; assay: whole plant or invertebrate; conditions: Nicotiana tabacum, read-out: efficacy against bacterial wilt in tobacco
[14] = system: stem rot in sweet potatoes; assay: whole plant or invertebrate; conditions: read-out: efficacy against stem rot in sweet potatoes
[15] = system: bacterial blight in rice; assay: whole plant or invertebrate; conditions: Oryza sativa, read-out: efficacy against bacterial blight in rice
[16] = system: fruit blotch in watermelons; assay: whole plant or invertebrate; conditions: read-out: efficacy against fruit blotch in watermelons
[17] = system: soft rot in Chinese cabbages; assay: whole plant or invertebrate; conditions: 48 h, read-out: efficacy against soft rot in Chinese cabbages

COCCCOC(=O)c1cn(C2CC2)c2cc(Cl)c(F)cc2c1=O [Compound 165, 3-methoxypropyl 7-chloro-1-cyclopropyl-6-fluoro-4-oxo-1,4-dihydroquinoline-3-carboxylate]
inhibition at 1 ppm [1]: ≥ 90%
inhibition at 5 ppm [1]: ≥ 90%
inhibition at 1 ppm [2]: ≥ 90%
inhibition at 5 ppm [2]: ≥ 90%
inhibition at 1 ppm [3]: ≥ 90%
inhibition at 5 ppm [3]: ≥ 90%
inhibition at 1 ppm [4]: ≥ 90%
inhibition at 5 ppm [4]: ≥ 90%
inhibition at 1 ppm [5]: ≥ 90%
inhibition at 5 ppm [5]: ≥ 90%
inhibition at 1 ppm [6]: ≥ 90%
inhibition at 5 ppm [6]: ≥ 90%
inhibition at 1 ppm [7]: ≥ 90%
inhibition at 5 ppm [7]: ≥ 90%
inhibition at 1 ppm [8]: ≥ 90%
inhibition at 5 ppm [8]: ≥ 90%
inhibition at 1 ppm [9]: ≥ 90%
inhibition at 5 ppm [9]: ≥ 90%
pest or weed control at 5 ppm [10]: ≥ 90%
pest or weed control at 10 ppm [10]: ≥ 90%
Rate of chlorophyll content increase (%) [11]: 16%
Rate of growth rate increase (%) [11]: 12%
Rate of leaf area increase (%) [11]: 17%
safety for plant growth (discoloration, necrosis, wilt, malformation) [12]: safe for plant growth
pest or weed control at 5 ppm [13]: ≥ 90%
pest or weed control at 10 ppm [13]: ≥ 90%
pest or weed control at 5 ppm [14]: ≥ 90%
pest or weed control at 10 ppm [14]: ≥ 90%
pest or weed control at 5 ppm [15]: ≥ 90%
pest or weed control at 10 ppm [15]: ≥ 90%
pest or weed control at 5 ppm [16]: ≥ 90%
pest or weed control at 10 ppm [16]: ≥ 90%
pest or weed control at 5 ppm [17]: ≥ 90%
pest or weed control at 10 ppm [17]: ≥ 90%

CCOc1cc2c(cc1F)c(=O)c(C(=O)OCCOC1CCCC1)cn2C1CC1 [Compound 307]
inhibition at 1 ppm [1]: ≥ 90%
inhibition at 5 ppm [1]: ≥ 90%
inhibition at 1 ppm [2]: ≥ 90%
inhibition at 5 ppm [2]: ≥ 90%
inhibition at 1 ppm [3]: ≥ 90%
inhibition at 5 ppm [3]: ≥ 90%
inhibition at 1 ppm [4]: ≥ 90%
inhibition at 5 ppm [4]: ≥ 90%
inhibition at 1 ppm [5]: ≥ 90%
inhibition at 5 ppm [5]: ≥ 90%
inhibition at 1 ppm [6]: ≥ 90%
inhibition at 5 ppm [6]: ≥ 90%
inhibition at 1 ppm [7]: ≥ 90%
inhibition at 5 ppm [7]: ≥ 90%
inhibition at 1 ppm [8]: ≥ 90%
inhibition at 5 ppm [8]: ≥ 90%
inhibition at 1 ppm [9]: ≥ 90%
inhibition at 5 ppm [9]: ≥ 90%
pest or weed control at 5 ppm [10]: ≥ 90%
pest or weed control at 10 ppm [10]: ≥ 90%
Rate of chlorophyll content increase (%) [11]: 11%
Rate of growth rate increase (%) [11]: 9%
Rate of leaf area increase (%) [11]: 12%
safety for plant growth (discoloration, necrosis, wilt, malformation) [12]: safe for plant growth
pest or weed control at 5 ppm [13]: ≥ 90%
pest or weed control at 10 ppm [13]: ≥ 90%
pest or weed control at 5 ppm [14]: ≥ 90%
pest or weed control at 10 ppm [14]: ≥ 90%
pest or weed control at 5 ppm [15]: ≥ 90%
pest or weed control at 10 ppm [15]: ≥ 90%
pest or weed control at 5 ppm [16]: ≥ 90%
pest or weed control at 10 ppm [16]: ≥ 90%
pest or weed control at 5 ppm [17]: ≥ 90%
pest or weed control at 10 ppm [17]: ≥ 90%

O=C(OCCCO)c1cn(C2CC2)c2cc(Cl)c(F)cc2c1=O [Compound 164, 3-hydroxypropyl 7-chloro-1-cyclopropyl-6-fluoro-4-oxo-1,4-dihydroquinoline-3-carboxylate]
inhibition at 1 ppm [1]: ≥ 90%
inhibition at 5 ppm [1]: ≥ 90%
inhibition at 1 ppm [2]: ≥ 90%
inhibition at 5 ppm [2]: ≥ 90%
inhibition at 1 ppm [3]: ≥ 90%
inhibition at 5 ppm [3]: ≥ 90%
inhibition at 1 ppm [4]: ≥ 90%
inhibition at 5 ppm [4]: ≥ 90%
inhibition at 1 ppm [5]: ≥ 90%
inhibition at 5 ppm [5]: ≥ 90%
inhibition at 1 ppm [6]: ≥ 90%
inhibition at 5 ppm [6]: ≥ 90%
inhibition at 1 ppm [7]: ≥ 90%
inhibition at 5 ppm [7]: ≥ 90%
inhibition at 1 ppm [8]: ≥ 90%
inhibition at 5 ppm [8]: ≥ 90%
inhibition at 1 ppm [9]: ≥ 90%
inhibition at 5 ppm [9]: ≥ 90%
pest or weed control at 5 ppm [10]: ≥ 90%
pest or weed control at 10 ppm [10]: ≥ 90%
Rate of chlorophyll content increase (%) [11]: 19%
Rate of growth rate increase (%) [11]: 12%
Rate of leaf area increase (%) [11]: 16%
safety for plant growth (discoloration, necrosis, wilt, malformation) [12]: safe for plant growth
pest or weed control at 5 ppm [13]: ≥ 90%
pest or weed control at 10 ppm [13]: ≥ 90%
pest or weed control at 5 ppm [14]: ≥ 90%
pest or weed control at 10 ppm [14]: ≥ 90%
pest or weed control at 5 ppm [15]: ≥ 90%
pest or weed control at 10 ppm [15]: ≥ 90%
pest or weed control at 5 ppm [16]: ≥ 90%
pest or weed control at 10 ppm [16]: ≥ 90%
pest or weed control at 5 ppm [17]: ≥ 90%
pest or weed control at 10 ppm [17]: ≥ 90%

O=C(OCCO)c1cn(C2CC2)c2cc(N3CCCCC3)c(F)cc2c1=O [Compound 431]
inhibition at 1 ppm [1]: ≥ 90%
inhibition at 5 ppm [1]: ≥ 90%
inhibition at 1 ppm [2]: ≥ 90%
inhibition at 5 ppm [2]: ≥ 90%
inhibition at 1 ppm [3]: ≥ 90%
inhibition at 5 ppm [3]: ≥ 90%
inhibition at 1 ppm [4]: ≥ 90%
inhibition at 5 ppm [4]: ≥ 90%
inhibition at 1 ppm [5]: ≥ 90%
inhibition at 5 ppm [5]: ≥ 90%
inhibition at 1 ppm [6]: ≥ 90%
inhibition at 5 ppm [6]: ≥ 90%
inhibition at 1 ppm [7]: ≥ 90%
inhibition at 5 ppm [7]: ≥ 90%
inhibition at 1 ppm [8]: ≥ 90%
inhibition at 5 ppm [8]: ≥ 90%
inhibition at 1 ppm [9]: ≥ 90%
inhibition at 5 ppm [9]: ≥ 90%
pest or weed control at 5 ppm [10]: ≥ 90%
pest or weed control at 10 ppm [10]: ≥ 90%
Rate of chlorophyll content increase (%) [11]: 15%
Rate of growth rate increase (%) [11]: 12%
Rate of leaf area increase (%) [11]: 11%
safety for plant growth (discoloration, necrosis, wilt, malformation) [12]: safe for plant growth
pest or weed control at 5 ppm [13]: ≥ 90%
pest or weed control at 10 ppm [13]: ≥ 90%
pest or weed control at 5 ppm [14]: ≥ 90%
pest or weed control at 10 ppm [14]: ≥ 90%
pest or weed control at 5 ppm [15]: ≥ 90%
pest or weed control at 10 ppm [15]: ≥ 90%
pest or weed control at 5 ppm [16]: ≥ 90%
pest or weed control at 10 ppm [16]: ≥ 90%
pest or weed control at 5 ppm [17]: ≥ 90%
pest or weed control at 10 ppm [17]: ≥ 90%

Reference: patent US20250313533A1, “QUINOLINE CARBOXYLIC ACID ESTER COMPOUND AND PREPARATION METHOD AND USE THEREOF” (priority 2019, published 2025)
